In patent US20060063774A1, “Phosphodiesterase inhibitor compounds and nitric oxide donors” (priority 2004, published 2006):

System: human corpus cavernosum tissue
Assay: In vitro comparative relaxation responses in phenylephrine-contracted human corpus cavernosum tissue strips (organ chamber, isometric tension)
Format: cell-based
Conditions: 10 μM and 30 μM, cumulative additions; tissue contracted with phenylephrine 7×10^−7 M; −100% = tone after papaverine 10^−4 M; comparator equimolar dipyridamole; FIG. 40
Description: FIG. 40 Graph of comparative in vitro relaxation effects of dipyridamole and Example 1 in phenylephrine induced contacted human corpus cavernosum tissue.
Human corpus cavernosum tissue biopsies were obtained at the time of penile prosthesis implantation from impotent men. The tissue was maintained in a chilled Krebs-bicarbonate solution prior to assay. The tissue was cut into strips of 0.3×0.3×1 cm and suspended in organ chambers for isometric tension measurement. Tissues were incrementally stretched until optimal isometrtic tension for contraction was obtained. Once this was achieved, the tissues were contracted with phenylephine (7×10^−7 M) and once a stable contraction was achieved, the tissues were exposed to either dipyridamole or Example 1 (10^−6 to 3×10^−5 M) by cumulative additions to the chamber. At the end of the experiment papaverine (10^−4 M) is added to obtain maximal relaxation. […] Data are expressed as the percent loss in tone from the phenylephrine-induced contraction (0%=phenylephrine contraction; −100%=tone after the administration of papaverine).

CC(C)(CC(=O)OCCN(CCOC(=O)CC(C)(C)SN=O)c1nc(N2CCCCC2)c2nc(N(CCOC(=O)CC(C)(C)SN=O)CCOC(=O)CC(C)(C)SN=O)nc(N3CCCCC3)c2n1)SN=O [Example 1, 2,6-bis(diethyl(3-methyl-3(nitrosothiol)butyric acid ester)amino)-4,8-dipiperidinopyrimido-[5,4-d]-pyrimidine]
relaxation of the phenylephrine-induced contraction (percent loss in tone), compared with dipyridamole: more efficacious in relaxing the phenylephrine-induced contaction than is an equimolar dose of the phosphodiesterase inhibitor dipyridamole
